What was measured:
K562 = test: Growth inhibition of human K562 cells incubated for 48 hrs by sulforhodamine B assay; assay type: functional; settings: K562, 48 h
MOLT-4 = test: Growth inhibition of human MOLT4 cells incubated for 48 hrs by sulforhodamine B assay; assay type: functional; settings: MOLT-4, 48 h
EKVX = test: Growth inhibition of human EKVX cells incubated for 48 hrs by sulforhodamine B assay; assay type: functional
NCI-H226 = test: Growth inhibition of human NCI-H226 cells incubated for 48 hrs by sulforhodamine B assay; assay type: functional; settings: NCI-H226, 48 h
NCI-H23 = test: Growth inhibition of human NCI-H23 cells incubated for 48 hrs by sulforhodamine B assay; assay type: functional; settings: NCI-H23, 48 h
NCI-H322M = test: Growth inhibition of human NCI-H322M cells incubated for 48 hrs by sulforhodamine B assay; assay type: functional
NCI-H460 = test: Growth inhibition of human NCI-H460 cells incubated for 48 hrs by sulforhodamine B assay; assay type: functional; settings: NCI-H460, 48 h
NCI-H522 = test: Growth inhibition of human NCI-H522 cells incubated for 48 hrs by sulforhodamine B assay; assay type: functional; settings: NCI-H522, 48 h
HCC 2998 = test: Growth inhibition of human HCC2998 cells incubated for 48 hrs by sulforhodamine B assay; assay type: functional; settings: HCC 2998, 48 h
HCT-15 = test: Growth inhibition of human HCT15 cells incubated for 48 hrs by sulforhodamine B assay; assay type: functional; settings: HCT-15, 48 h
HT-29 = test: Growth inhibition of human HT-29 cells incubated for 48 hrs by sulforhodamine B assay; assay type: functional; settings: HT-29, 48 h
KM12 = test: Growth inhibition of human KM12 cells incubated for 48 hrs by sulforhodamine B assay; assay type: functional; settings: KM12, 48 h
SW-620 = test: Growth inhibition of human SW620 cells incubated for 48 hrs by sulforhodamine B assay; assay type: functional; settings: SW-620, 48 h
SF-539 = test: Growth inhibition of human SF539 cells incubated for 48 hrs by sulforhodamine B assay; assay type: functional; settings: SF-539, 48 h
SNB-75 = test: Growth inhibition of human SNB75 cells incubated for 48 hrs by sulforhodamine B assay; assay type: functional; settings: SNB-75, 48 h
LOX IMVI = test: Growth inhibition of human LOXIMVI cells incubated for 48 hrs by sulforhodamine B assay; assay type: functional
MDA-MB-435 = test: Growth inhibition of human MDA-MB-435 cells incubated for 48 hrs by sulforhodamine B assay; assay type: functional; settings: MDA-MB-435, 48 h
SK-MEL-2 = test: Growth inhibition of human SK-MEL-2 cells incubated for 48 hrs by sulforhodamine B assay; assay type: functional; settings: SK-MEL-2, 48 h
UACC-62 = test: Growth inhibition of human UACC62 cells incubated for 48 hrs by sulforhodamine B assay; assay type: functional; settings: UACC-62, 48 h
IGROV-1 = test: Growth inhibition of human IGROV1 cells incubated for 48 hrs by sulforhodamine B assay; assay type: functional; settings: IGROV-1, 48 h
OVCAR-4 = test: Growth inhibition of human OVCAR4 cells incubated for 48 hrs by sulforhodamine B assay; assay type: functional; settings: OVCAR-4, 48 h
OVCAR-8 = test: Growth inhibition of human OVCAR8 cells incubated for 48 hrs by sulforhodamine B assay; assay type: functional; settings: OVCAR-8, 48 h
786-0 = test: Growth inhibition of human 786-0 cells incubated for 48 hrs by sulforhodamine B assay; assay type: functional; settings: 786-0, 48 h
A498 = test: Growth inhibition of human A498 cells incubated for 48 hrs by sulforhodamine B assay; assay type: functional; settings: A498, 48 h
ACHN = test: Growth inhibition of human ACHN cells incubated for 48 hrs by sulforhodamine B assay; assay type: functional
RXF 393 = test: Growth inhibition of human RXF393 cells incubated for 48 hrs by sulforhodamine B assay; assay type: functional; settings: RXF 393, 48 h
SN12C = test: Growth inhibition of human SN12C cells incubated for 48 hrs by sulforhodamine B assay; assay type: functional
TK-10 = test: Growth inhibition of human TK10 cells incubated for 48 hrs by sulforhodamine B assay; assay type: functional; settings: TK-10, 48 h
UO-31 = test: Growth inhibition of human UO31 cells incubated for 48 hrs by sulforhodamine B assay; assay type: functional; settings: UO-31, 48 h
PC-3 = test: Growth inhibition of human PC3 cells incubated for 48 hrs by sulforhodamine B assay; assay type: functional; settings: PC-3, 48 h
BT-549 = test: Growth inhibition of human BT549 cells incubated for 48 hrs by sulforhodamine B assay; assay type: functional; settings: BT-549, 48 h
[1] = biological target: RAF proto-oncogene serine/threonine-protein kinase (Homo sapiens, UniProt P04049); test: Inhibition of human c-RAF at 10 uM using MEK1 as substrate in presence of [33P]ATP by Hotspot assay relative to control
RAF proto-oncogene serine/threonine-protein kinase, sequence (P04049 whole entry): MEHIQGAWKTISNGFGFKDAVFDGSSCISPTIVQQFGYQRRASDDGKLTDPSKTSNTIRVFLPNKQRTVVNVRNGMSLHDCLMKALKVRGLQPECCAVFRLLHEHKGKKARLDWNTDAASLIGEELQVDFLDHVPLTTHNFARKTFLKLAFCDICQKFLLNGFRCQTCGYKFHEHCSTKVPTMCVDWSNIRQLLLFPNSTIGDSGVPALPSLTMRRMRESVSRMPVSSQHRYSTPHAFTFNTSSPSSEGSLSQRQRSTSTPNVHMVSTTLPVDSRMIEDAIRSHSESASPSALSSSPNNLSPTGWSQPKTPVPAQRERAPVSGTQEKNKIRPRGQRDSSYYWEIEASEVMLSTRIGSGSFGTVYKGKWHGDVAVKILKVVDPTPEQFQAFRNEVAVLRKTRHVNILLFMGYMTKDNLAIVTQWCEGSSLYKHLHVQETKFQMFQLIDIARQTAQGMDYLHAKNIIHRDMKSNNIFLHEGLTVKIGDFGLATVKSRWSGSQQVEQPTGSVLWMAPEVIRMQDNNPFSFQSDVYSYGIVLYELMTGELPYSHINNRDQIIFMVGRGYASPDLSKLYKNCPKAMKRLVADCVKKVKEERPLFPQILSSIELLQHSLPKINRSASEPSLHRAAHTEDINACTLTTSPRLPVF

[2] = read-out: LC50 (the source's name)

In the case of `COc1cc2cc(Oc3ccc(NC(=O)Nc4ccc(Cl)c(Cl)c4)cc3)c(C)nc2cc1OC`, the GI50 (K562) is reported as 3.32 µM, the LC50 (concentration killing 50% of cells) (K562) is reported as > 100 µM and the TGI (K562) is reported as > 100 µM. The GI50 (MOLT-4) was 3.02 µM, the LC50 (MOLT-4) was > 100 µM and the TGI (MOLT-4) was 22.8 µM. The GI50 (EKVX) was 2.36 µM, the LC50 (concentration killing 50% of cells) (EKVX) was > 100 µM and the TGI (EKVX) was 9.51 µM. For the same molecule, the GI50 (NCI-H226) was 3.12 µM, the TGI (NCI-H226) was 8.68 µM and the CC50 (NCI-H226; [2]) was 35.8 µM. The GI50 (NCI-H23) was 3.36 µM, the TGI (NCI-H23) was 15.9 µM and the CC50 (NCI-H23; [2]) was 76.3 µM. For the same molecule, the GI50 (NCI-H322M) was 8.66 µM, the TGI (NCI-H322M) was 60.3 µM and the CC50 (NCI-H322M; [2]) was > 100 µM. The GI50 (NCI-H460) was 2.46 µM, the TGI (NCI-H460) was 10.1 µM and the CC50 (NCI-H460; [2]) was 45.8 µM. The GI50 (NCI-H522) was 1.74 µM, the TGI (NCI-H522) was 8.43 µM and the CC50 (NCI-H522; [2]) was 59.5 µM. For the same molecule, the GI50 (HCC 2998) was 5.54 µM, the TGI (HCC 2998) was > 100 µM and the CC50 (HCC 2998; [2]) was > 100 µM. The GI50 (HCT-15) was 3.56 µM, the LC50 (lethal concentration, 50% net cell kill) (HCT-15) was > 100 µM and the TGI (HCT-15) was > 100 µM. The GI50 (HT-29) was 2.34 µM, the TGI (HT-29) was 4.89 µM and the CC50 (HT-29; [2]) was 10.6 µM. The GI50 (KM12) was 3.22 µM, the TGI (KM12) was 13.4 µM and the CC50 (KM12; [2]) was 74.7 µM. For the same molecule, the GI50 (SW-620) was 4.24 µM, the LC50 (SW-620) was 60.9 µM and the TGI (SW-620) was 15.6 µM. For the same molecule, the GI50 (SF-539) was 5.18 µM, the TGI (SF-539) was 22.3 µM and the CC50 (SF-539; [2]) was 88.8 µM. The GI50 (SNB-75) was 2.33 µM, the TGI (SNB-75) was 8.28 µM and the CC50 (SNB-75; [2]) was 66.1 µM. It also gave a GI50 (LOX IMVI) of 3.45 µM, a TGI (LOX IMVI) of 14.6 µM and a CC50 (LOX IMVI; [2]) of 38.2 µM. For the same molecule, the GI50 (MDA-MB-435) was 3.09 µM, the TGI (MDA-MB-435) was 16.8 µM and the CC50 (MDA-MB-435; [2]) was > 100 µM. It also gave a GI50 (SK-MEL-2) of 3 µM, a TGI (SK-MEL-2) of 6.55 µM and a CC50 (SK-MEL-2; [2]) of 20.6 µM. It also gave a GI50 (UACC-62) of 3.33 µM, a TGI (UACC-62) of 19.2 µM and a CC50 (UACC-62; [2]) of 71.2 µM. The GI50 (IGROV-1) was 5.61 µM, the TGI (IGROV-1) was 46.1 µM and the CC50 (IGROV-1; [2]) was > 100 µM. It also gave a GI50 (OVCAR-4) of 2.67 µM, a TGI (OVCAR-4) of 8.3 µM and a CC50 (OVCAR-4; [2]) of 35.2 µM. For the same molecule, the GI50 (OVCAR-8) was 3.54 µM, the TGI (OVCAR-8) was 12.9 µM and the CC50 (OVCAR-8; [2]) was 36 µM. It also gave a GI50 (786-0) of 3.64 µM, a TGI (786-0) of 17.7 µM and a CC50 (786-0; [2]) of 65.2 µM. It also gave a GI50 (A498) of 1.95 µM, a TGI (A498) of 7.93 µM and a CC50 (A498; [2]) of 74.9 µM. The GI50 (ACHN) was 3 µM, the TGI (ACHN) was 12.1 µM and the CC50 (ACHN; [2]) was 69.1 µM. It also gave a GI50 (RXF 393) of 4.28 µM, a TGI (RXF 393) of 16.7 µM and a CC50 (RXF 393; [2]) of 65.7 µM. For the same molecule, the GI50 (SN12C) was 3.39 µM, the TGI (SN12C) was 20.5 µM and the CC50 (SN12C; [2]) was > 100 µM. For the same molecule, the GI50 (TK-10) was 3.46 µM, the TGI (TK-10) was 9.18 µM and the CC50 (TK-10; [2]) was 43.3 µM. It also gave a GI50 (UO-31) of 3.44 µM, a TGI (UO-31) of 12.6 µM and a CC50 (UO-31; [2]) of 79.6 µM. The GI50 (PC-3) was 1.53 µM, the TGI (PC-3) was 5.13 µM and the CC50 (PC-3; [2]) was 21.3 µM. For the same molecule, the GI50 (BT-549) was 2.4 µM, the TGI (BT-549) was 11.7 µM and the CC50 (BT-549; [2]) was 51.6 µM. It also gave an inhibition [1] of 97.8%.

— ChEMBL document CHEMBL3994622, “Design and synthesis of new RAF kinase-inhibiting antiproliferative quinoline derivatives. Part 2: Diarylurea derivatives” (Eur J Med Chem, 2017)
